Laboratory results from patent publication US20240352068A1, “VIMENTIN TARGETED PEPTOIDS FOR EARLY DIAGNOSIS AND TREATMENT OF CANCER” (UNIVERSITY OF HOUSTON SYSTEM, priority 2021, published 2024).
Numbered stars: 1 amine (or outer) side, 2 acyl side, 3 side chain; on linkers, the order of the positions; unused ones are H or OH. Bridge positions count the residues as written; N and C are the ends. Square brackets hold non-standard residues; d marks the D form. Peptide text beside a SMILES is read from it. I, II: the chains in the order shown. X1 = O=C(c1ccccc1)c1cccc(N(CC(=O)[*:2])[*:1])c1; N(4-BzPh)Gly = O=C(O)CNc1ccc(C(=O)c2ccccc2)cc1; Gly(N-piperonyl) = O=C(O)CNCc1ccc2c(c1)OCO2; Nleu = CC(C)CNCC(=O)O; Nlys = NCCCCNCC(=O)O; Nme = COCCNCC(=O)O; Sar = CNCC(=O)O

Tests used:
[1] = tested on: HBEC3^p53,KRAS,cMYC cells; experiment: on-bead cell binding, transformed cells; format: cell-based, human; details: JM3A on tentagel beads, red stained cells, separately and as mixture
Excerpt: (§1) The compound JM3A was resynthesized on tentagel beads and equilibrated with HBEC3^p53,KRAS,cMYC (red stained) cells and HBEC3-KT (green stained) cells separately and also as a mixture.

HBEC3-KT cells = experiment: on-bead cell binding, normal cells; format: cell-based, human; details: JM3A on tentagel beads, green stained cells, separately and as mixture
Excerpt: as §1

[2] = biological target: Vimentin protein (His-tag) (Homo sapiens, UniProt P08670); experiment: on bead protein binding assay; details: anti-His Alexa 647 detection
Description: To reconfirm the JM3A-vimentin interaction, an on bead protein binding assay was performed. Vimentin protein (His-tag) was screened with compound JM3A (on tentagel beads) and visualized using a secondary antibody (Anti-His Alexa 647) (FIG. 9A).

[3] = biological target: T1, commercially available vimentin protein (Homo sapiens, UniProt P08670); experiment: magnetic-bead pulldown and western blot with commercially available vimentin protein; format: binding; details: western blot
T1 construct: purchased
Excerpt: To further confirm of JM3A specificity, the western blot assay was repeated using commercially available vimentin protein (FIG. 10B). […] This JM3A bound band disappeared when this binding was competed (blocked) with 10× free JM3A, and 5× free vimentin antibody. […] The results were further confirmed by running pure protein as reference band and JM3A transformed cells pulldown proteins.

[4] = tested on: vimentin expressing cells; experiment: magnetic bead pulldown of cells with quantification; format: cell-based, human; details: HBEC3^p53,KRAS,cMYC vs HBEC3-KT; NAD(P)H, dityrosine, MTS readout
Description: JM3A can be utilized as an early cancer biomarker to develop simple diagnostic tools such as reading the cells auto fluorescence markers or quantifying the cells using MTS assay. Applicant performed the pulldown assay using JM3A to HBEC3-KT and HBEC3^p53,KRAS,cMYC cells. The Biotin-JM3A compound was mounted on streptavidin coated magnetic beads and 1 million cells (HBEC3-KT and HBEC3^p53,KRAS,cMYC cells each) were incubated for 1 hour. Next, bound cells were pulled using magnet.
The difference of number of cells pulled down were quantified for NAD (P) H (FIG. 11A) and Dityrosine (FIG. 11B) expression. Also to the pulldown cells MTS reagent was added and number of cells were quantified (FIG. 11C).

vimentin [5] = biological target: T2, vimentin (Homo sapiens, UniProt P08670); experiment: cross-linking, magnetic-bead pulldown and western blot on cells; format: binding; set-up: from tissue; host or cells: human early cancer tissue and normal tissue cross-sections; details: western blot
Description: For pulldown assay, the JM3A compound was synthesized with Biotin on C-terminal and benzophenone on its N-terminal (FIG. 7A). The compound was first mounted on streptavidin magnetic beads, followed by incubation of the cells HBEC3^p53,KRAS,cMYC and HBEC3-KT for 1 hour. Bound cells were separated using magnetic beads and cross-linked using UV. The cells were then lysed, and the proteins were separated by electrophoresis and visualized by silver staining (FIG. 7B). The unique band at around 60 kDa in the JM3A-bound sample, which was not present in whole cell lysis of HBEC3-KT cells or in the Control-PC462 compound pulldown, was analyzed by standard proteomics technique.
To reconfirm the JM3A-vimentin interaction, western blot analysis of samples from cross-linking and magnetic-bead pulldown assay with normal cells (HBEC3-KT) and transformed cells (HBEC3^p53,KRAS,cMYC) were performed (FIG. 10A). Pulldown assay was performed on normal and transformed cells using JM3A and control PC462. All the pulldown fractions were run on western-blot and compared with whole-cell lysis of HBEC3-KT and HBEC3^p53,KRAS,cMYC cells.

vimentin [6] = biological target: T2, vimentin; experiment: immunohistochemical detection of vimentin in tissues; set-up: from tissue; host or cells: human early cancer tissue and normal tissue cross-sections; details: IHC
Description: In a more clinically applicable set up, Applicant detected vimentin expression using JM3A in early cancer tissues from human samples using immunohistochemistry (IHC) experiments. Biotin-JM3A was incubated with those tumor tissue cross-sections compared to normal tissues for 1 hour and visualized by streptavidin Q-dots 655 under fluorescent microscope using Long-pass filter (FIG. 11D).

H1299 cells [7] = format: cell-based
Description: Next, Applicant evaluated the anti-proliferative activity of these peptoid dimers via standard MTS assays on non-small cell lung cancer (NSCLC) H1299 cells, which have high vimentin expression.
After 18 hours, the activity reached the maximum (IC50˜6 μM) (FIG. 21C).

vimentin [8] = biological target: T2, vimentin; experiment: ELISA-like binding assay to vimentin
Description: To identify minimum pharmacophore of JM3A (the most important residues directly needed for protein binding), an alanine/sarcosine scan was done.
Next, Applicant compared binding activity between L2 (D-ala) and JM3ABPD1 by employing ELISA-like binding assay in a concentration between 10 nM to 10 μM.

H460 = experiment: MTS assay on H460 cells; format: cell-based; details: H460, vimentin high expression
Excerpt: (§2) In order to investigate the broader applicability of vimentin targeting in NSCLC cells, Applicant performed the same MTS studies on different lung cancer models with various vimentin expressions. These cell lines included H460 (Carcinoma, large cell lung cancer), H2009 (Adenocarcinoma, Stage 4), H358 (Bronchioalveolar Carcinoma, NSCLC), H2122 (Adenocarcinoma, NSCLC), and normal bronchial epithelial HBEC3KT cells.

H2009 = experiment: MTS assay on H2009 cells; format: cell-based; details: H2009, vimentin moderate expression
Excerpt: as §2

H358 = experiment: MTS assay on H358 cells; format: cell-based; details: H358, vimentin moderate expression
Excerpt: as §2

H2122 = experiment: MTS assay on H2122 cells; format: cell-based; details: H2122, vimentin low expression
Excerpt: as §2

[9] = tested on: normal bronchial epithelial HBEC3KT cells; experiment: MTS assay on normal bronchial epithelial cells; format: cell-based, human
Excerpt: as §2

H1299 cells [10] = experiment: wound healing (cell migration) assay; format: cell-based; set-up: inhibition of cell migration: dose or concentration left out as unconfirmed
Description: FIGS. 22A-22B provide data related to the characterization of L2 (D-ala), JM3A-BPD1, and JM3A-BP. […] H1299 cells were cultured to form a monolayer in 24-well plate. A scratch was made and wells were treated with L2 (D-ala), JM3A-BPD1. […]
Since vimentin has been identified as an important biomarker of mesenchymal cells during the epithelial-mesenchymal transition (EMT) process. The EMT process can endow epithelial cells with stemness as well as invasion and migration properties. Therefore, Applicant would like to investigate how L2 (D-ala) targeting vimentin can impact cancer stem cells activity. The wound-healing assay indicates the mobility/motility of cells, which is a hallmark measurement of cancer stem cells. The L2 (D-ala), JM3A-BPD1, JM3A-BP, and control compound were used to study the effects on cell migration via wound healing assay. […] Both JM3A-BP monomer and control compounds had no effect on cell migration.

H460 cells = experiment: colony formation assay; format: cell-based; details: for colony formation: 7 days, at 20 μM
Description: FIGS. 23A-23B provide additional data related to the characterization of L2 (D-ala), JM3A-BPD1, and JM3A-BP. […] FIG. 23B provides a quantification of the colonies after a 7-day incubation treatment.
Colony formation is a standard assay to assess the activity of cancer stem cells. When cancer cells are seeded in a low number, normal cancer cells die due to the loss of cell-cell communications while cancer stem cells can survive and form colonies in isolation. Applicant performed colony formation assay on H460 cells to study how L2 (D-ala) can affect cancer stem cells activity. The H460 cells were seeded and treated with L2 (D-ala), JM3A-BPD1, JM3A-BP, and control compounds from day 1. After 7 days of incubation, colonies were carefully counted and plotted.

T2 sequence (P08670 whole entry): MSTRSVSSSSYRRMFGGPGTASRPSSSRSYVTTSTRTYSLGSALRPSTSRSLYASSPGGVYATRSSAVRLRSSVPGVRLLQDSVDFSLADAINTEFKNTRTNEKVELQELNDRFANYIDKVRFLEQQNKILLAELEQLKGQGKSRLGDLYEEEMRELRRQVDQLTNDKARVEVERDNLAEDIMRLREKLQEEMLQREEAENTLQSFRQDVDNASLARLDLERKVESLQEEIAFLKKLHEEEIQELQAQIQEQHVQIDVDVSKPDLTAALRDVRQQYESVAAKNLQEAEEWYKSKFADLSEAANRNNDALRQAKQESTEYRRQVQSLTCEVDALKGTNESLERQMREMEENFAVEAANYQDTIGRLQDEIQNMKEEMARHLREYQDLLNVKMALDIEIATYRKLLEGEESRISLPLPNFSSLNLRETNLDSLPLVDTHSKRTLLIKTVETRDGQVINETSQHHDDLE
Chain of Vimentin protein (His-tag) (P08670 whole entry): as above
T1 sequence (P08670 whole entry): as above

In the case of `COCCN(CC(=O)NC(CCCCN)C(=O)NC(CCSC)C(N)=O)C(=O)CN(Cc1ccc2c(c1)OCO2)C(=O)CN(CC(C)C)C(=O)CN(CCCCN)C(=O)CN(CCCCN)C(=O)CNCC(C)C` (stereo not shown) [JM3A] (H-[Nleu][Nlys][Nlys][Nleu][Gly(N-piperonyl)][Nme]KM-NH2; configuration not given here), the “binding of beads to cells” value [1] is reported as “bound only to red stained cells”, the “binding of beads to cells” value (HBEC3-KT cells) is reported as “not to green stained cells” and the “binding of histidine-tagged vimentin to on-bead compound” value [2] is reported as “showed binding”. The “interaction with and pulldown of vimentin protein” value [3] was “strong interaction and pulldown of vimentin protein”, the “pulldown of vimentin expressing cells” value [4] was “can be pulled down” and the “pulldown of vimentin protein” value (vimentin [5]; normal cells (HBEC3-KT)) was “not in normal cells”. The “pulldown of vimentin protein” value (vimentin [5]; transformed cells (HBEC3^p53,KRAS,cMYC)) was “pulldown only with JM3A in transformed cells”, the “detection of vimentin overexpression” value (vimentin [6]; early cancer tissues) was “present” and the “detection of vimentin overexpression” value (vimentin [6]; normal tissues) was “absent”.
`COCCN(CC(=O)N[C@@H](CCCCN)C(=O)N[C@@H](CCSC)C(=O)NCC(=O)NCCCC[C@H](NC(=O)CNC(=O)[C@H](CCSC)NC(=O)[C@H](CCCCN)NC(=O)CN(CCOC)C(=O)CN(Cc1ccc2c(c1)OCO2)C(=O)CN(CC(C)C)C(=O)CN(CCCCN)C(=O)CN(CCCCN)C(=O)CN(CC(C)C)C(=O)CNc1ccc(C(=O)c2ccccc2)cc1)C(N)=O)C(=O)CN(Cc1ccc2c(c1)OCO2)C(=O)CN(CC(C)C)C(=O)CN(CCCCN)C(=O)CN(CCCCN)C(=O)CN(CC(C)C)C(=O)CNc1ccc(C(=O)c2ccccc2)cc1` [L2] (I: H-[N(4-BzPh)Gly][Nleu][Nlys][Nlys][Nleu][Gly(N-piperonyl)][Nme]KMGK-NH2 / II: H-[N(4-BzPh)Gly][Nleu][Nlys][Nlys][Nleu][Gly(N-piperonyl)][Nme]KMG; amide I:11-II:C) gave an IC50 (H1299 cells [7]) of roughly 6 µM.
In the case of `COCCN(CC(=O)N[C@@H](CCCCN)C(=O)N[C@H](C)C(=O)NCC(=O)NCCCC[C@H](NC(=O)CNC(=O)[C@@H](C)NC(=O)[C@H](CCCCN)NC(=O)CN(CCOC)C(=O)CN(Cc1ccc2c(c1)OCO2)C(=O)CN(CC(C)C)C(=O)CN(CCCCN)C(=O)CN(CCCCN)C(=O)CN(CC(C)C)C(=O)CNc1cccc(C(=O)c2ccccc2)c1)C(N)=O)C(=O)CN(Cc1ccc2c(c1)OCO2)C(=O)CN(CC(C)C)C(=O)CN(CCCCN)C(=O)CN(CCCCN)C(=O)CN(CC(C)C)C(=O)CNc1ccc(C(=O)c2ccccc2)cc1` [L2 (D-ala)] (I: H-[X1][Nleu][Nlys][Nlys][Nleu][Gly(N-piperonyl)][Nme]K[dA]GK-NH2 / II: H-[N(4-BzPh)Gly][Nleu][Nlys][Nlys][Nleu][Gly(N-piperonyl)][Nme]K[dA]G; amide I:11-II:C; N-terminus and C-terminus assumed), the “Kd improvement relative to JM3A-BPD1” value (vimentin [8]; 10 nM to 10 μM) is reported as “approximately 10 times”, the “effect of extension of treatment time on proliferation” value (H1299 cells [7]; H1299 cells, after 18 hours) is reported as “no significant impact” and the “anti-proliferation potency (in words)” value (H1299 cells [7]; H1299 cells, treatment 6 hours) is reported as “improvement in potency”. The “anti-proliferation activity (in words)” value (H460) was “best activity”, the “anti-proliferation activity (in words)” value (H2009) was “medium activity” and the “anti-proliferation activity (in words)” value (H358) was “medium activity”. The “anti-proliferation activity (in words)” value (H2122) was “lowest activity”, the “anti-proliferation activity (in words)” value [9] was “inactivity” and the “concentration from which cell migration is inhibited” value (H1299 cells [10]) was 3 µM. For the same molecule, the “inhibition of cell migration” value (H1299 cells [10]) was “significantly inhibit”, the “concentration from which colony formation is disrupted” value (H460 cells; 7 days of incubation) was 1 µM and the colony formation (H460 cells) was “inhibit all colonies”.
With `COCCN(CC(=O)NC(CCCCN)C(=O)NC(CCSC)C(=O)NCCCCC(NC(=O)C(CCSC)NC(=O)C(CCCCN)NC(=O)CN(CCOC)C(=O)CN(Cc1ccc2c(c1)OCO2)C(=O)CN(CC(C)C)C(=O)CN(CCCCN)C(=O)CN(CCCCN)C(=O)CN(CC(C)C)C(=O)CNc1ccc(C(=O)c2ccccc2)cc1)C(N)=O)C(=O)CN(Cc1ccc2c(c1)OCO2)C(=O)CN(CC(C)C)C(=O)CN(CCCCN)C(=O)CN(CCCCN)C(=O)CN(CC(C)C)C(=O)CNc1ccc(C(=O)c2ccccc2)cc1` (stereo not shown) [JM3A-BPD1] (I: H-[N(4-BzPh)Gly][Nleu][Nlys][Nlys][Nleu][Gly(N-piperonyl)][Nme]KMK-NH2 / II: H-[N(4-BzPh)Gly][Nleu][Nlys][Nlys][Nleu][Gly(N-piperonyl)][Nme]KM; amide I:10-II:C; configuration not given here) the “inhibition of cell migration” value (H1299 cells [10]) was “moderately inhibit” and the colony formation (H460 cells) was “some colony disruption”.
With `COCCN(CC(=O)NC(CCCCN)C(=O)NC(CCSC)C(N)=O)C(=O)CN(C)C(=O)CN(CC(C)C)C(=O)CN(CCCCN)C(=O)CN(CCCCN)C(=O)CN(C)C(=O)CNc1ccc(C(=O)c2ccccc2)cc1` (stereo not shown) [JM3A-4,8-BP] (H-[N(4-BzPh)Gly][Sar][Nlys][Nlys][Nleu][Sar][Nme]KM-NH2; configuration not given here) the “binding to vimentin (in words)” value (vimentin [8]; comparison of derivatives) was “highest binding affinity”.
